Tested on: GPR158 R173A, E271A, and Y269A mutants
Assay: GAP BRET assay on GPR158 mutants defective in glycine binding
Type: cell-based, human
Source text: FIGS. 11A-11G. Probing Cache domain of GPR158 as a ligand binding site A) Computational docking of glycine into putative ligand binding pocket on GPR158 Cache domain. Glycine and directly interacting residues are shown as sticks. Hydrogen bonds and van der Waals interactions are shown as dotted lines. B) Diagram showing interactions in the docked model of glycine against GPR158 Cache domain. Hydrogen bonds are shown as dashed lines, van der Waals interactions are shown as intersecting semicircles, and the secondary structural context of Ser266 and Tyr269 is shown as an arc. Dagger indicates a residue implicated in glycine binding in 11A. […] Error bars are mean±s.e.m. of 3 independent experiments in triplicate. *p<0.05, **p<0.01, ***p<0.001, ****p<0.0001, ns=p>0.05, two-way ANOVA Columns with no fill (Ctrl), columns with angled-line fill (Glycine) E) Quantification of glycine inhibitory effect on kGAP normalized to the effect seen with WT receptor. […]
Cellular measurements of BRET between Venus-Gβ1γ2 and masGRK3ct-Nluc were performed to examine GAP activity of RGS protein in living cells (described in detail in Masuho et al., 2015 (40)). […] The BRET signal was determined by calculating the ratio of the light emitted by the Venus-Gβ1γ2 (535 nm with a 30 nm band path width) over the light emitted by the masGRK3ct-Nluc (475 nm with a 30 nm band path width). […]

## NCC(=O)O [glycine]
  glycine inhibition of GAP activity of RGS7/Gβ5: lost an ability to inhibit the GAP-activity of RGS7/Gβ5
